Laboratory results from patent US20200200775A1, “OXIDIZED LIPIDS AS BIOMARKERS FOR NEUROPATHIC PAIN” (Fraunhofer-Gesellschaft zur Förderung der angewandten …, priority 2017, published 2020).

How the values were obtained:
[1] = LC-MS/MS lipid profiling in mouse models of chemotherapy-induced peripheral neuropathic pain; settings: for concentrations of 9,10-EpOME: various pain relevant tissues and plasma following paclitaxel (6 mg/kg i.p.) or oxaliplatin (3 mg/kg i.p.) treatment, measurable as early as 24 hours after injection; for concentrations of 9-HODE / concentrations of 13-HODE: various pain relevant tissues and plasma following paclitaxel or oxaliplatin treatment
Description: For all behavioral experiments, only 6-12 weeks old male C57BL/6N mice were used and purchased from commercial breeding companies (Charles River, Sulzfeld, Germany, Janvier, Le Geneset-Saint-Isle, FR). To compare mechanical thresholds, age and sex matched littermates were used as control.
Paclitaxel was dissolved in Cremophor EL/Ethanol 1:1 and diluted in saline. The dose for intraperitoneal injection was set to 6 mg/kg as described previously [4]. Oxaliplatin was dissolved in saline. The dose for intraperitoneal injection was set to 3 mg/kg as described previously [5].
For the measurement of epoxy lipids and HETEs stock solutions of the analytes 9,10-EpOME, 9-HODE, 13-HODE, 12-HETE and 15-HETE and internal standards 9,10-EpOME-d4, 9-HODE-d4, 13-HODE-d4, 12-HETE-d4 and 15-HETE-d4 are generated with concentrations of 2500 ng/ml in ethanol. Working standards were obtained by further dilution with a concentration range of 0.1-250 ng/ml for all analytes.
For prostanoids, stock solutions with 50,000 ng/ml of all analytes (6-keto-PGF1α) and internal standards (6-keto-PGF1α-d4) were prepared in methanol.
Lipids are extracted twice with 600 μl of ethyl acetate using liquid-liquid extraction. The combined organic phases were removed at a temperature of 45° C. under a gentle stream of nitrogen. The residues were reconstituted with 50 μl of methanol/water/butylated hydroxytoluene (BHT) (50:50:10^−3, v/v/v) (EpOMEs, HODEs and HETEs), or 50 μl of acetonitrile/water/formic acid (20:80:0.0025, v/v/v) (6-keto-PGF1α) and then centrifuged for 2 min at 10,000 g, and transferred to glass vials waiting for analysis.
The LC-MS/MS system consists of a QTrap 5500 (AB Sciex, Darmstadt, Germany) equipped with a Turbo-V source operating in negative electrospray ionization mode, an Agilent 1200 binary HPLC pump and degasser (Agilent, Waldbronn, Germany), and an HTC Pal autosampler (CTC analytics, Zwingen, Switzerland). High-purity nitrogen for the mass spectrometer was produced by a NGM 22-LC-MS nitrogen generator (cmc Instruments, Eschborn, Germany).
For the chromatographic separation of EpOMEs, HODEs and HETEs, a Gemini NX C18 column and precolumn were used (150×2 mm inner diameter, 5 μm particle size, and 110 Å pore size; Phenomenex, Aschaffenburg, Germany). For the chromatographic separation of prostanoids, a Synergi 4 u Hydro-RP column (150×2 mm inner diameter, 4 μm, Phenomenex, Aschaffenburg, Germany) and a precolumn of same material were used.
Mobile phase A consist of water: ammonia (100:0.05, v/v), and mobile phase B of acetonitrile ammonia (100:0.05, v/v). The gradient changed from 85% A to 10% within 12 min. These conditions were held for 1 min.
For the chromatographic separation of prostanoids, a Synergi 4 u Hydro-RP column (150×2 mm inner diameter, 4 μm, Phenomenex, Aschaffenburg, Germany) and a precolumn of same material were used.

[2] = Plasma concentrations of 9,10-EpOME and 9,10-DiHOME after paclitaxel treatment, with telmisartan administration; assay type: in vivo, mice; settings: 8 d after paclitaxel-treatment (6 mg/kg); telmisartan 10 mg/kg, 2 h
Description: FIG. 4: Plasma-concentrations of 9,10-EpoME and its Metabolite 9,10-DiHOME 8d after paclitaxel-treatment (6 mg/kg) can be reduced by administration of telmisartan (10 mg/kg, 2h). Data are shown as mean±SEM from five mice per group; one-way ANOVA, *p<0.05.
Oxaliplatin was dissolved in saline.
These conditions were held for 1 min.
Ratios of analyte peak area and internal standard area.

[3] = pain relevant tissues, FIG. 2: 8 d after i.p. paclitaxel (6 mg/kg)

SMILES	concentrations of 9,10-EpOME [1]	concentrations of 9-HODE [1]	concentrations of 13-HODE [1]	concentrations of 12-HETE [1, 3]	concentrations of 15-HETE [1, 3]	concentrations of 6-keto-Prostaglandin-F1α ([1]; pain relevant tissues, FIG. 2: 8 d after multiple i.p. paclitaxel (4×2 mg/kg, every other day))	Plasma-concentrations of 9,10-DiHOME [2]	Plasma-concentrations of 9,10-EpOME [2]
O=C1[O][Pt]2([NH][C@@H]3CCCC[C@H]3[NH]2)[O]C1=O [oxaliplatin]	elevated	elevated	elevated	–	–	–	–	–
CC(=O)O[C@H]1C(=O)[C@@]2(C)[C@H]([C@H](OC(=O)c3ccccc3)[C@]3(O)C[C@H](OC(=O)[C@H](O)[C@@H](NC(=O)c4ccccc4)c4ccccc4)C(C)=C1C3(C)C)[C@]1(OC(C)=O)CO[C@@H]1C[C@@H]2O [paclitaxel]	elevated	elevated	elevated	decreased	decreased	decreased	–	–
CCCc1nc2c(C)cc(-c3nc4ccccc4n3C)cc2n1Cc1ccc(-c2ccccc2C(=O)O)cc1 [telmisartan]	–	–	–	–	–	–	reduced	reduced
